Test results published in US5599812A, “Tricyclic pyrrolopyrazine 5-HT3 -active compounds” (Adir Et Compagnie, priority 1993, dated 1997).

How the values were obtained:
5-HT3 receptors [1] = target: T1, 5-HT3 receptors (Mus musculus, UniProt P23979); assay: Accumulation of 14C-guanidinium in NG 108-15 cells; settings: for multiplication of the intracellular accumulation of 14C-guanidinium: fold, agonist at 10 μM-0.1 mM
T1 sequence (P23979 24-489): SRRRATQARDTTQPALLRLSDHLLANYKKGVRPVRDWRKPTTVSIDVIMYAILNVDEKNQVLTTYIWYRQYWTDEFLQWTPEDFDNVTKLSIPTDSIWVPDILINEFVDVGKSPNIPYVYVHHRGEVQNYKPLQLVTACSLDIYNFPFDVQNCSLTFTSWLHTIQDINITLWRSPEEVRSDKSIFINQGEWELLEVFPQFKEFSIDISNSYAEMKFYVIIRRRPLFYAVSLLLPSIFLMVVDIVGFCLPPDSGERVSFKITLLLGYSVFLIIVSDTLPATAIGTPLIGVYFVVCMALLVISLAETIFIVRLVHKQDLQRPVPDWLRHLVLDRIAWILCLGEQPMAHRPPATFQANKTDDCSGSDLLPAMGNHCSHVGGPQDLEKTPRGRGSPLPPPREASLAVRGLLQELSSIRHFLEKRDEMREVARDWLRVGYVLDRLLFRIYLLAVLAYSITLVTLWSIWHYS
Procedure: The accumulation of ^14 -C-guanidinium in NG 108-15 cells is measured and makes it possible to study the interaction of the tested compounds with 5-HT3 receptors, knowing that this accumulation is stimulated by agonists of 5-HT3 receptors.
The NG 108-15 hybrid clone (neuroblastoma-glioma) is cultured under standard conditions (Dulbecco's medium to which 40 mM of sodium bicarbonate, 1.8 mM of L-glutamine, 0.1 mM of hypoxanthine, 1 μM of aminopterin, 16 μM of thymine and 10% of fetal calf serum are added) at 37° C. in an atmosphere enriched in CO2 (7%). At confluence (.congruent.3.5×10^5 cells in dishes with diameters of 35 mm), the culture medium is sucked off and the cell lawn is rapidly washed with 3 cm^3 of a HEPES (20 mM) buffer containing 145 mM of NaCl, 5.4 mM of KCl, 1.8 mM of CaCl2, 1.0 mM of MgCl2 and 20 mM of glucose, pH 7.4. […] The incubation lasts 10 minutes at 37° C. The medium is then sucked off and the cells are rapidly washed twice with 3 cm^3 of the washing buffer in which the NaCl has been fully replaced by an equimolar concentration of choline chloride. Finally, the cell lawn is taken up in 0.5 cm^3 of 0.4N sodium hydroxide solution and the accumulated radioactivity is counted by spectrometry in liquid medium (Aquasol).

5-HT3 receptors [2] = target: T2, 5-HT3 receptors (Rattus norvegicus, UniProt P35563); assay: Bradycardic Bezold-Jarisch reflex in anesthetized rats; format: in vivo, Sprague-Dawley; settings: for fall in the cardiac rhythm / duration of the fall in the cardiac rhythm: i.v. injection of 30 μg; for duration of the fall in the cardiac rhythm: approximately; for dose completely preventing the agonist-induced bradycardia: prior i.v. administration, against 30 μg i.v. agonist
T2 construct: bradycardia induced by stimulation of 5-HT3 receptors on vagal afferent neurons; from tissue; host or cells: whole anesthetized rat; receptors on vagal afferent neurons
T2 sequence (P35563 24-483): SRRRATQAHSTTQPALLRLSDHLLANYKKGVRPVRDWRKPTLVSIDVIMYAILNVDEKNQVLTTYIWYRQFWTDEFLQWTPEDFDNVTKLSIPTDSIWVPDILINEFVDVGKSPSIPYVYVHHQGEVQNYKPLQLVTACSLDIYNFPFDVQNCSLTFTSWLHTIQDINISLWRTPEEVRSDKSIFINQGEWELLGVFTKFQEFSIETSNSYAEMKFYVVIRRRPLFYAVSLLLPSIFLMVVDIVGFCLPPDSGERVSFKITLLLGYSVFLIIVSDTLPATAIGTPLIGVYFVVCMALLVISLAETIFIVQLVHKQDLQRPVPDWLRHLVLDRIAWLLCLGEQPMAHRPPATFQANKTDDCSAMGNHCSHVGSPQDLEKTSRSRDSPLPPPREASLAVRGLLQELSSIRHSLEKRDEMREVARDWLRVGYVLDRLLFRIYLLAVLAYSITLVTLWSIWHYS
Procedure: Bradycardia (Bezold-Jarisch reflex) is induced by the intravenous injection of 5-HT3 serotonin in rats anesthetized with urethane.
This response consists of a violent but transitory bradycardia induced by stimulation of 5-HT3 receptors on vagal afferent neurons.
The animal (adult male rat, Sprague-Dawley strain, 250-300 g) is first of all anesthetized with urethane (1.4 g/kg i.p.) and then a tracheotomy is performed in order to implant a tracheal cannula. A catheter (0.3 mm)is introduced into the abdominal aorta via the femoral artery for the continuous recording of the arterial pressure and the cardiac rhythm.
Bradycardia is expressed as percentage of lowering (maximum) of the base rhythm, before any treatment (means±M.S.D.).

[3] = Solubility in DMSO (NMR remark); format: physicochemical; settings: d6-DMSO, tetrahydrochloride
[4] = doses (I.V.) 30, 60 and 120 μg·Kg^-1 (one value given)

Compound: Cc1[nH]c2ccc(O)cc2c1CCN [2-methyl-5-hydroxytryptamine]
- multiplication of the intracellular accumulation of 14C-guanidinium (5-HT3 receptors [1]): 5
- fall in the cardiac rhythm (5-HT3 receptors [2]): -80%
- duration of the fall in the cardiac rhythm (5-HT3 receptors [2]): 4 to 5 s

Compound: c1ccc(CN2CCN(c3nc4ccccc4n4cccc34)CC2)cc1 [Example 1, 4-(4-benzylpiperazino)pyrrolo[1,2-a]quinoxaline]
- EC50 (5-HT3 receptors [1]): ~100 nM

Compound: Clc1ccc2c(c1)nc(N1CCN(Cc3ccccc3)CC1)c1cccn12 [Example 3, 4-(4-benzylpiperazino)-7-chloropyrrolo[1,2-a]quinoxaline]
- EC50 (5-HT3 receptors [1]): 50 nM
- Agonist Effect, Bradycardia % (5-HT3 receptors [2]; [4]): 0%

Compound: Fc1ccc(CN2CCN(c3nc4cc(Cl)ccc4n4cccc34)CC2)cc1 [Example 4, 7-CHLORO-4-[4-(4-FLUOROBENZYL)PIPERAZINO]PYRROLO[1,2-a]QUINOXALINE]
- EC50 (5-HT3 receptors [1]): 100 nM
- Antagonist effect at (concentration) (5-HT3 receptors [1]; antagonist effect, 14C-guanidinium accumulation, NG 108-15 cells): 3 nM
- Agonist Effect, Bradycardia % (5-HT3 receptors [2]; [4]): 0%

Compound: c1ccc(CN2CCN(c3nc4cccnc4n4cccc34)CC2)cc1 [Example 11, 6-(4-benzylpiperazino)pyrido[3,2-e]pyrrolo [1,2-a]pyrazine]
- EC50 (5-HT3 receptors [1]): 30 nM
- Antagonist effect at (dose) (5-HT3 receptors [2]; I.V., rat, Bezold-Jarisch reflex): 120 µg/kg
- Agonist Effect, Bradycardia % (5-HT3 receptors [2]; dose (I.V.) 120 μg·Kg^-1, n = 7, maximum lowering of base rhythm, means ± M.S.D.): 59.4 ± 7.2%

Compound: c1ccc(CN2CCN(c3ccc4nc(N5CCN(Cc6ccccc6)CC5)c5cccn5c4n3)CC2)cc1 [Example 93, 2,6-bis(4-benzylpiperazino)pyrido[3,2-e]pyrrolo[1,2-a]pyrazine]
- solubility in DMSO [3]: insoluble

Compound: Cc1nccn1CC1CCc2c(c3ccccc3n2C)C1=O (stereo not shown) [ondansetron]
- dose completely preventing the agonist-induced bradycardia (5-HT3 receptors [2]): 1 µg/kg

Compound: NCCc1c[nH]c2ccc(O)cc12 [serotonin]
- multiplication of the intracellular accumulation of 14C-guanidinium (5-HT3 receptors [1]): 5
- Agonist Effect, Bradycardia % (5-HT3 receptors [2]; dose (I.V.) 30 μg·Kg^-1, n = 21, maximum lowering of base rhythm, means ± M.S.D.): 68.0 ± 2.3%
- fall in the cardiac rhythm (5-HT3 receptors [2]): -80%
- duration of the fall in the cardiac rhythm (5-HT3 receptors [2]): 4 to 5 s

Compound: COc1cc(N)c(Cl)cc1C(=O)NC1CN2CCC1CC2 (stereo not shown) [zacopride]
- dose completely preventing the agonist-induced bradycardia (5-HT3 receptors [2]): 1 µg/kg
